# Literature values, collected in PMC4621921 (Oncotarget, 2015).
# Read-outs that look alike come from different tables or passages of the source.
# Experiments:
# [1] = design: method as in PMID 23169517, PMID 24002501; conditions: clinical studies
# prostate cancer = tested on: prostate cancer; design: method as in PMID 23169517; conditions: phase 2, prostate cancer
# [2] = tested on: castration-resistant prostate cancer; design: method as in earlier work; conditions: phase 3, castration-resistant prostate cancer; no statistically significant improvement
# [3] = in vivo
SMILES,common AEs [1],evaluable patients with regression in soft tissue lesions (prostate cancer) [%],PFS (prostate cancer; versus 5.9 weeks with placebo) [weeks],median OS [2] [months],common AEs [3]
COc1cc2nccc(Oc3ccc(NC(=O)C4(C(=O)Nc5ccc(F)cc5)CC4)cc3)c2cc1OC [cabozantinib],"fatigue, decreased appetite, and diarrhea",72,23.9,11,–
COc1cc2c(Oc3ccc(NC(=O)C4(C(=O)Nc5ccc(F)cc5)CC4)cc3F)ccnc2cc1OCCCN1CCOCC1 [foretinib],–,–,–,–,"fatigue, hypertension, and gastrointestinal toxicities"
C[C@]12C=CC(=O)C=C1CC[C@@H]1[C@@H]2C(=O)C[C@@]2(C)[C@H]1CC[C@]2(O)C(=O)CO [prednisone],–,–,–,9.8,–
